Data on 55 compounds can be found in PubChem BioAssay AID1159565 (GlaxoSmithKline (GSK), 2015).

Active and inactive are the calls of the source. How the calls were made is not given here.

This assay has as its system T. cruzi-infected H9C2 cardiomyocytes, high-content imaging. Description: anti-T. cruzi activity in infected cardiomyocytes – imaging, H9C2 host cardiomyocytes, host toxicity (AID 1159565).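 Further: infected cells incubated 72 h after plating.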
[1] abbreviates: measured here: H9C2 host cell toxicity.
[2] abbreviates: measured here: amastigotes per cell.

Broadly, the IC50 is the concentration that inhibits the measured activity by half. `COc1ccc(Nc2nc(-c3ccccn3)cs2)c(OC)c1`: the IC50 is 7900 nM. The same compound had an IC50 under setting [1] of 2000 nM. The IC50 under setting [2] stood at 5000 nM.
For `CC(C)Oc1ccc(C(=O)Nc2ccc(N3CCOCC3)c(Cl)c2)cc1`, the IC50 is 1300 nM. Further, the IC50 under setting [1] is > 50000 nM. The compound also returned an IC50 under setting [2] of 1300 nM.
Regarding `CC1CCCCN1C(=O)NCCc1coc(-c2ccc(F)cc2)n1` (stereo not given), the IC50 was 320 nM. Moreover, the IC50 under setting [1] is > 50000 nM. For the same compound, the IC50 under setting [2] is 320 nM.
`Cc1cc2cncn2c(C2CCCCN2C(=O)c2cccs2)n1` (stereo not given): the IC50 was 63 nM. Under setting [1], the IC50 is > 50000 nM. Besides, the IC50 under setting [2] came to 63 nM.
`CCCc1cc(C(=O)Nc2ncc(-c3cccc(Br)c3)n2C)n[nH]1`: the IC50 is 4000 nM. The IC50 under setting [1] is > 50000 nM. Under setting [2], the IC50 worked out at 2500 nM.
As for `O=C(NC(c1ccc(Cl)cc1)c1cnccn1)C1CCN(C(=O)Nc2cccc(C(F)(F)F)c2)CC1` (stereo not given), the IC50 was 630 nM. Further, the IC50 under setting [1] was > 50000 nM. Under setting [2], this compound had an IC50 of 500 nM.
In the case of `CC(C)CC(=O)NC(c1cccs1)c1ccc2cccnc2c1O` (stereo not given), the IC50 is 1300 nM. The IC50 under setting [1] came to 2000 nM. This compound also gave an IC50 under setting [2] of 790 nM.
For `Cc1ccccc1NS(=O)(=O)c1ccc2[nH]cc(C(=O)NC3CCCCC3)c(=O)c2c1`, the IC50 was 16000 nM. This compound displayed an IC50 under setting [1] of 25000 nM. In addition, the IC50 under setting [2] amounted to 10000 nM.
On to `O=C(Nc1n[nH]c(-c2ccccn2)n1)C1CC1c1ccccc1` (stereo not given), for which the IC50 is 20000 nM. For the same compound, the IC50 under setting [1] is > 50000 nM. Under setting [2], this compound showed an IC50 of 16000 nM.
Consider `COc1cccc(C(=O)[C@H]2C[C@@H]2CN(Cc2ccccn2)Cc2ccccn2)c1`, for which the IC50 was 1300 nM. Under setting [1], the IC50 was found to be 20000 nM. The IC50 under setting [2] amounted to 790 nM.
The like results for `Nc1ncnc2c1ncn2[C@@H]1O[C@H](CO)C[C@H]1O` were, in that order, 2000 nM, 5000 nM and 1300 nM.
For `CC(Cn1ccnc1)NC(=O)C1CC1c1cccc(Cl)c1Cl` (stereo not given), the half-inhibitory concentration (IC50) is 250 nM. Further, under setting [1], the IC50 was > 50000 nM. Under setting [2], the IC50 came to 200 nM.
Take `Fc1ccccc1N1C[C@H]2CCN(c3cccnc3)C[C@H]2C1`: the IC50 is 200 nM. Moreover, the IC50 under setting [1] was > 50000 nM. For the same compound, the IC50 under setting [2] worked out at 200 nM.
As to `Cc1ccc(NC(=O)C(C)n2nc([N+](=O)[O-])c(Br)c2C)cc1Cl` (stereo not given), the IC50 was 6300 nM. Moreover, the IC50 under setting [1] was > 50000 nM. This compound also displayed an IC50 under setting [2] of 3200 nM.
As to `NCC(Cc1ccccc1)NC(=O)c1cnc(-c2c[nH]c3ncccc23)s1` (stereo not given), the IC50 was > 50000 nM (inactive). For the same compound, the IC50 under setting [1] was 630 nM. In addition, the IC50 under setting [2] worked out at 20000 nM.
The like results for `O=[N+]([O-])c1ccc(C2=CC(c3ccccc3)=NCCN2)cc1` were, in that order, 1000 nM, 32000 nM and 250 nM.
As to `COc1ccc(C2CC(c3ccccc3Cl)=NN2C(=O)CNC(=O)C2CCC2)cc1` (stereo not given), the IC50 is 1600 nM. The IC50 under setting [1] is > 50000 nM. The compound further had an IC50 under setting [2] of 1000 nM.
Regarding `Cc1ncsc1CNc1cnc(-c2ccc3c(c2)OCCO3)c(-c2cnn(C)c2)c1`, the IC50 is 40000 nM. For the same compound, the IC50 under setting [1] was > 50000 nM. The compound also showed an IC50 under setting [2] of 20000 nM.
The like results for `C=CCn1nc([N+](=O)[O-])nc1Oc1ccc(Cl)cc1Cl` were, in that order, 250 nM, > 50000 nM and 130 nM.
For `O=S(=O)(c1ccccc1C(F)(F)F)N1CCN(Cc2ccc(-n3ccnc3)cc2)CC1`, the IC50 is 250 nM. Besides, under setting [1], the IC50 is > 50000 nM. The compound further came in with an IC50 under setting [2] of 200 nM.
The matching figures for `NC(N)=Nc1nc(-c2ccc(NC(N)=NCCN3CCCC3)cc2)cs1`: > 50000 nM (inactive), > 50000 nM and > 50000 nM.
`CCCNC(=O)Nc1cccc(-c2nc3ncccc3o2)c1`: the IC50 was 4000 nM. In addition, the IC50 under setting [1] is 25000 nM. Moreover, under setting [2], the IC50 turned out to be 3200 nM.
The matching figures for `Cc1nc(N2CC(C)OC(C)C2)sc1C(=O)Nc1ccc2c(c1)OCO2` (stereo not given): 4000 nM, > 50000 nM and 2500 nM.
As for `COc1ccc(C(=O)Nc2ccc(NC(=O)CO)cc2)cc1`, the IC50 was > 50000 nM (inactive). Besides, the IC50 under setting [1] was > 50000 nM. For the same compound, under setting [2], the IC50 is > 50000 nM.
Consider `Cn1nc([N+](=O)[O-])nc1Oc1ccc(C(=O)c2ccccc2)cc1`, for which the IC50 is 320 nM. Further, under setting [1], the IC50 was > 50000 nM. Under setting [2], the IC50 turned out to be 130 nM.
The matching figures for `COc1ccccc1C=CCN1C[C@H]2CCC[C@@H](C1)C2(O)c1cccnc1` (stereo not given in full): 40 nM, > 50000 nM and 40 nM.
In the case of `O=C(CN(Cc1ccccn1)Cc1ccccn1)NCc1ccc(-c2csnn2)cc1`, the IC50 is 63000 nM. Under setting [1], the IC50 was > 79000 nM. The compound further had an IC50 under setting [2] of 7900 nM.
For `O=C(Cn1cnc2cc([N+](=O)[O-])ccc2c1=O)NCCc1ccc(Cl)cc1Cl`, the IC50 is 400 nM. Further, under setting [1], the IC50 was > 50000 nM. The compound also gave an IC50 under setting [2] of 200 nM.
For `Cc1cc(Br)cc(C(=O)c2c(C(C)C)c(=O)[nH]c(=O)n2Cc2ccnc(N)c2)c1`, the IC50 is 320 nM. For the same compound, under setting [1], the IC50 was > 50000 nM. Further, under setting [2], the IC50 worked out at 250 nM.
With `Cc1ccc(S(=O)(=O)Nc2ccc(CN3CCN(C(=O)c4cccc(C#N)c4)CC3)cc2)cc1`, the concentration for half-maximal inhibition (IC50) is 500 nM. The IC50 under setting [1] is > 50000 nM. The IC50 under setting [2] was determined as 400 nM.
Turning to `COc1ccc(Nc2nc(NC3CCC(O)CC3)ncc2Br)c(C(N)=O)c1` (stereo not given), the IC50 is 3200 nM. The compound further displayed an IC50 under setting [1] of 790 nM. Further, the IC50 under setting [2] worked out at 2000 nM.
For the compound `O=C(Nc1nc2ccccc2[nH]1)c1c(O)c2cccc3c2n(c1=O)CC3`, the IC50 was 16000 nM. Also, under setting [1], the IC50 stood at 10000 nM. Also, the IC50 under setting [2] was determined as 25000 nM.
In the case of `O=C(N1CCc2ccccc2CC1)C1(C(=O)N2CCC(n3c(=O)[nH]c4ncccc43)CC2)CC1`, the IC50 is 790 nM. Moreover, the IC50 under setting [1] was > 50000 nM. For the same compound, the IC50 under setting [2] was determined as 630 nM.
As for `c1ccc2sc(Nc3nc4ncccc4[nH]3)nc2c1`, the IC50 is 1600 nM. Further, the IC50 under setting [1] was determined as 1000 nM. The IC50 under setting [2] was found to be 1300 nM.
The like results for `CC(C)C[C@H](NC(=O)c1csc(-c2cccs2)n1)C(=O)NC1(C#N)CC1` were, in that order, > 50000 nM (inactive), > 50000 nM and 20000 nM.
The matching figures for `CCCN(Cc1ccc(OC)c(OC)c1)Cc1cc(=O)c2c(C)cc(C)cc2[nH]1`: 2000 nM, > 50000 nM and 500 nM.
`COc1ccc(C(=O)Nc2c(C)nn(COc3cccc(C(F)(F)F)c3)c2C)cc1`: the IC50 is 40000 nM. Further, the IC50 under setting [1] was > 50000 nM. The compound further came in with an IC50 under setting [2] of 25000 nM.
Take `C[C@@H](Oc1cc(-n2cnc3ccc(O[C@H]4CCNC4)cc32)sc1C(N)=O)c1ccccc1Cl`: the IC50 is 13000 nM. The same compound showed an IC50 under setting [1] of 630 nM. For the same compound, the IC50 under setting [2] amounted to 6300 nM.
Regarding `CCC(=O)Nc1ccc(-c2nc3ccc(Cl)cc3[nH]2)cc1`, the IC50 was 1600 nM. Besides, the IC50 under setting [1] was > 50000 nM. This compound yielded an IC50 under setting [2] of 500 nM.
Turning to `CC1CN(Cc2ccc(C#N)cc2)CCN1c1ccc(NC(=O)c2ccccc2F)cc1` (stereo not given), the IC50 is > 50000 nM (inactive). Besides, under setting [1], the IC50 was > 50000 nM. In addition, the IC50 under setting [2] was > 50000 nM.
As for `Cc1cccc(NS(=O)(=O)c2cnc3sc(C)cn3c2=O)c1`, the IC50 is 2000 nM. The IC50 under setting [1] came to 6300 nM. In addition, the IC50 under setting [2] came out at 1000 nM.
The matching figures for `COc1ccnc2[nH]cc(-c3cc(C(=O)N[C@H](CO)c4ccccc4)co3)c12`: 20000 nM, 320 nM and 7900 nM.
As to `Cc1nn(-c2nc3ccccc3s2)c2c1C(c1ccc(OCC(N)=O)cc1)SCC(=O)N2` (stereo not given), the IC50 is > 50000 nM (inactive). Further, the IC50 under setting [1] is > 50000 nM. For the same compound, the IC50 under setting [2] is > 50000 nM.
Take `CC1(Oc2cncc(Cl)c2)CCN(Cc2cc3ccccc3[nH]2)C1` (stereo not given): the IC50 is 1600 nM. Besides, the IC50 under setting [1] stood at 10000 nM. The IC50 under setting [2] amounted to 1000 nM.
For `CN1CCCN(C(=O)c2ccc(N3CCCC3)cc2Cl)CC1`, the IC50 is 1000 nM. Moreover, the IC50 under setting [1] was > 50000 nM. Further, the IC50 under setting [2] is 630 nM.
The matching figures for `CS(=O)(=O)c1cccc(-c2cnc(N)c3c(-c4ccc(CO)cc4)csc23)c1`: 630 nM, > 50000 nM and 320 nM.
Turning to `O=C(COc1ccccc1)Nc1ccccc1C(=O)Nc1nccs1`, the IC50 is > 50000 nM (inactive). Moreover, the IC50 under setting [1] is > 50000 nM. For the same compound, the IC50 under setting [2] is > 50000 nM.
Take `Cc1ccc(S(C)(=O)=O)cc1Nc1nccc(-c2sc(N)nc2-c2ccccc2)n1`: the IC50 is 130 nM. Under setting [1], this compound registered an IC50 of 5000 nM. This compound also displayed an IC50 under setting [2] of 79 nM.
The like results for `CCC(c1ccc(F)cc1)n1cncc1-c1cnn(C)c1` (stereo not given) were, in that order, 320 nM, > 50000 nM and 320 nM.
The like results for `Cc1[nH]nc2c1C(c1ccc(OCc3ccccc3F)cc1)SCC(=O)N2` (stereo not given) were, in that order, 3200 nM, > 50000 nM and 790 nM.
On to `Cc1nc(C(=O)Nc2ccc3c(c2)OCO3)nn1-c1ccc(Cl)cc1`, for which the IC50 is 1600 nM. Further, the IC50 under setting [1] is > 50000 nM. The same compound yielded an IC50 under setting [2] of 1000 nM.
On to `O=C(c1ccccc1)N1CCC(C(=O)N2CCC(Oc3ccccc3Cl)CC2)CC1`, for which the IC50 was 32000 nM. Further, the IC50 under setting [1] is > 50000 nM. Under setting [2], this compound had an IC50 of 25000 nM.
Regarding `COc1ccc2ncc(=O)n(CCN3CC[C@H](NCc4ncc(Cl)c5[nH]ncc45)[C@H](O)C3)c2n1`, the IC50 was 3200 nM. In addition, the IC50 under setting [1] is > 50000 nM. The compound also registered an IC50 under setting [2] of 1600 nM.
For the compound `CCCC(=O)N(Cc1ccccn1)c1nc2ccccc2s1`, the IC50 was 100 nM. In addition, under setting [1], the IC50 was > 50000 nM. Besides, the IC50 under setting [2] was 79 nM.
On to `Cc1nc(C(=O)Nc2ccc3c(c2)OCO3)nn1-c1ccc(F)cc1`, for which the IC50 was 1300 nM. Moreover, the IC50 under setting [1] was > 50000 nM. Under setting [2], this compound gave an IC50 of 1000 nM.
